Measurements published in patent publication US20090215841A1, “D2 Receptor Ligand-078” (ASTRAZENECA AB, priority 2008, published 2009).

What was measured:
D2S receptor = D2S receptor (Homo sapiens, UniProt P14416); experiment: D2 receptor binding assay ([3H]-raclopride displacement)
Method: The ability of test compounds to displace ^3H-raclopride at the D2S receptor was determined on membranes from D2s-transfected CHO cells (Bmax 13 pmol/mg protein). An assay uses a standard 96-well glass fiber filter plate to retain radioligand bound by the receptor. Retained ^3H is determined in a TopCount scintillation plate counter following the addition of a liquid scintillant to each well. Compounds are evaluated for their potency using competition curve analysis, resulting in calculated Ki values.

[1] = target: D2s receptor (membranes from D2s stably-transfected CHO cells) (Homo sapiens, UniProt P14416); experiment: GTPγS assay, block of dopamine-stimulated [35S]-GTPγS binding
Method: GTPγS assay was performed substantially as described by Lazareno. […] Antagonist activity of compounds was determined by the ability of test compounds to block dopamine-stimulated [^35S]-GTPγS binding to cell membranes from D2s stably-transfected CHO cells.

Male Long-Evans rats = experiment: Conditioned Avoidance Responding (CAR) assay; type: in vivo, rat; conditions: for motor impairment in CAR (shock escapes): dose not stated; for efficacy in CAR (shock avoidance): rats, dosed 60 min prior to testing
Method: Male Long-Evans rats were trained to traverse to the opposite side of a standard shuttle cage following presentation of an auditory and visual stimulus in order to avoid delivery of electric shock to the floor of the cage. Daily sessions consisted of up to 80 trials. If shock was delivered, animals always had the opportunity to escape the shock by traversing to the opposite side of the cage. Drug was administered (via s.c. or p.o. route) 60 min prior to testing and the percentage of trials in which shock was avoided and escaped was recorded.

[2] = test system: rat plasma prolactin levels; experiment: Prolactin assay (plasma prolactin by ELISA); type: in vivo; conditions: male Sprague Dawley rats, s.c., one-hour post dose
From the text: As discussed above, hyperprolactinemia is a side effect that can be observed following administration of D2 antagonists. In contrast, administration of D2 agonists to human subjects results in large reductions in prolactin levels in blood (hypoprolactinemia).
Male Sprague Dawley rats were subcutaneously administered with vehicle or test compounds. Trunk blood was collected one-hour post dose and plasma evaluated by an ELISA assay to determine prolactin levels.

CF-1 male mice = experiment: Catalepsy assay, mice; type: in vivo, mouse
Method: (§1) CF-1 male mice or Sprague Dawley rats are dosed (via i.p., p.o. or s.c. route) with a test compound at given concentrations or a vehicle. […] The length of time (in seconds) during which each mouse maintains the initial forepaw bar position is recorded (cataleptic pose). Maximum cut-off observation time is 60 seconds. Results are expressed as means (in sec) for each dose group.

[3] = test system: D-amphetamine hyperlocomotion in habituated rats; experiment: D-amphetamine-induced hyperlocomotor activity (LMA) in habituated rat model; conditions: in vivo, sc, 1 mg/kg
Method: LMA was assessed in male Long Evans rats using a paradigm that included a habituation phase followed by administration of 1 mg/kg D-amphetamine. Animals were allowed to acclimatize to the testing room for 1 hour before being weighed and placed into activity chambers. Thirty minutes after LMA measurements began, animals were briefly removed, subcutaneously dosed with vehicle or test drug at different doses (μmol/kg), and returned to the chambers. After 30 minutes, animals were again removed and dosed with vehicle or D-amphetamine at 1 mg/kg (s.c.). After returning animals to the activity chambers, LMA was assessed for 60 minutes. […] Statistical analysis was made of total distance traveled after D-amphetamine administration using ANOVA and Tukey's post hoc analysis where appropriate. All values are expressed as Mean and SD.

Sprague Dawley rats = experiment: Catalepsy assay, rats; type: in vivo, rat
Method: as §1

D2s receptor (membranes from D2s stably-transfected CHO cells), sequence (P14416 1-414 isoform P14416-2): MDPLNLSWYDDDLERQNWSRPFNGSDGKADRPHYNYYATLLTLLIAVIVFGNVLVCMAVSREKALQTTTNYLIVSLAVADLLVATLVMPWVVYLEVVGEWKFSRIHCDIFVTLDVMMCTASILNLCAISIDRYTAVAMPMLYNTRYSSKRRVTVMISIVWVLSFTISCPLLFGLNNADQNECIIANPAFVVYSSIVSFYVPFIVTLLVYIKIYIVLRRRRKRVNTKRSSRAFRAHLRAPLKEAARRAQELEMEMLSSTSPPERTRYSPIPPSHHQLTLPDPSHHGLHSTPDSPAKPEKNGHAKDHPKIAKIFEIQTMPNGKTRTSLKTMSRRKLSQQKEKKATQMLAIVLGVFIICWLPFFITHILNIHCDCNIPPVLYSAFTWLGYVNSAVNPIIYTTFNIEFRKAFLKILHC
D2S receptor, sequence (P14416 1-414 isoform P14416-2): as above

Structure (SMILES)	Ki (D2S receptor) [µM]	IC50 [1] [µM]	motor impairment in CAR (shock escapes) (Male Long-Evans rats)	efficacy in CAR (shock avoidance) (Male Long-Evans rats)	no observable effect level (NOEL) on plasma prolactin [2] [µmol/kg]	catalepsy (CF-1 male mice; 30 μmol/kg)	MED, reversal of LMA [3] [µmol/kg]	catalepsy (Sprague Dawley rats)	catalepsy (CF-1 male mice; positive control)
O=C1CCc2ccc(OCCCCN3CCN(c4cccc(Cl)c4Cl)CC3)cc2N1 [Aripiprazole]	–	–	exhibited motor impairment	effective	2.2	–	–	–	–
CCCN[C@@H]1Cc2cc3nc(N)sc3cc2C1 [Compound C3]	0.115	0.437	exhibited motor impairment	effective	10	exhibited catalepsy	10	–	–
Cc1nc2n(c(=O)c1CCN1CCC(c3noc4cc(F)ccc34)CC1)CCCC2 [Risperidone]	–	–	–	–	0.07	–	–	–	–

Second part, led by results:

Ki (D2S receptor) [µM]	IC50 [1] [µM]	motor impairment in CAR (shock escapes) (Male Long-Evans rats)	Structure (SMILES)	efficacy in CAR (shock avoidance) (Male Long-Evans rats)	no observable effect level (NOEL) on plasma prolactin [2] [µmol/kg]	catalepsy (CF-1 male mice; 30 μmol/kg)	MED, reversal of LMA [3] [µmol/kg]	catalepsy (Sprague Dawley rats)	catalepsy (CF-1 male mice; positive control)
0.151	0.417	–	CN[C@@H]1Cc2cc3nc(N)sc3cc2C1	–	–	–	–	–	–
0.0219	0.0741	–	CCN(CC)[C@@H]1Cc2cc3nc(N)sc3cc2C1	–	–	–	–	–	–
–	–	exhibited motor impairment	O=C(CCCN1CCC(O)(c2ccc(Cl)cc2)CC1)c1ccc(F)cc1 [Haloperidol]	effective	–	–	–	induced catalepsy	induced catalepsy
